The structures appear in SMILES notation.

Here are results for four compounds from patent US11090324B2, “Composition, for remedying female climacteric syndrome symptoms, comprising tectorigenin 7-O-Xylosylglucoside” (LG Household & Health Care Ltd., priority 2017, dated 2021).

In data set [1] the test system is ovariectomy (OVX) female Sprague-Dawley rats. Nature of the data set: Serum CTX level (bone resorption marker) in ovariectomized rats, ELISA. It is filed as in vivo, rat. Conditions: for CTX: serum, 8 weeks, sham 42.3, OVX control 78.2. How it is done: 11-12 week-old female Sprague-Dawley rats were subjected to sham operation (group 1, n=10) or ovariectomy (OVX) (groups 2-8, n=10 per each group). After a week from the operation, 0.01 mL of a sample per body weight (g) of each rat was administered orally every day for 4 weeks. 17β-Estradiol (E2) was administered to the positive control group and a 1:5:5 mixture of the three compounds tectorigenin, tectoridin and tectorigenin 7-O-xylosylglucoside was administered to the test groups. 4 weeks after the administration, the skin temperature at 2 cm where the tail starts was measured using an infrared thermometer. [table] In order to measure CTX (C-terminal telopeptide of type I collagen), which is a marker related with bone resorption, the same rats as in Example 2 were orally administered with a sample for 8 weeks and then serum was collected. The CTX level in the serum was measured using the rat C-telopeptide of type I collagen ELISA kit (MyBioSource) according to the manufacturer's instructions.

In another data set the test system is estrogen receptors. As to the kind of experiment: ERE (estrogen response element) reporter assay. It is filed as cell-based. Conditions: sum of the concentrations of the three compounds 10 ppm; with respect to negative control group (1.0). The protocol:
ERE (estrogen response element) reporter assay was performed to investigate the activity of the three compounds tectorigenin 7-O-xylosylglucoside, tectorigenin and tectoridin for estrogen receptors. Tectorigenin, tectoridin and tectorigenin 7-O-xylosylglucoside were treated at ratios described in Table 1 (the sum of the concentrations of the three compounds was 10 ppm).

Data set [2] relates to ovariectomy (OVX) female Sprague-Dawley rats. As to the kind of experiment: Tail skin temperature of ovariectomized rats (vasomotor symptoms). It is filed as in vivo, rat. Conditions: oral 4 weeks, mixture 5 and 10 mg/kg/day, single compounds 10 mg/kg/day. The text has this: It is known that 75% of […] women experience vasomotor symptoms. Facial flushing (hot flush) is the representative symptom where the skin on face, neck and chest is reddened abruptly, accompanied by unpleasant flushing and sweating. The change in the vasomotor symptoms can be evaluated by measuring the change in skin temperature. In an animal experiment, it can be measure by the skin temperature of the rat tail (Guidelines for evaluation of health functional food, ‘Helpful for health of […] women’, National Institute of Food and Drug Safety Evaluation). 11-12 week-old female Sprague-Dawley rats were subjected to sham operation (group 1, n=10) or ovariectomy (OVX) (groups 2-8, n=10 per each group). After a week from the operation, 0.01 mL of a sample per body weight (g) of each rat was administered orally every day for 4 weeks. 17β-Estradiol (E2) was administered to the positive control group and a 1:5:5 mixture of the three compounds tectorigenin, tectoridin and tectorigenin 7-O-xylosylglucoside was administered to the test groups. 4 weeks after the administration, the skin temperature at 2 cm where the tail starts was measured using an infrared thermometer. [table]

`C[C@]12CC[C@@H]3c4ccc(O)cc4CC[C@H]3[C@@H]1CC[C@@H]2O` [17β-estradiol (E2), 17β-Estradiol, reference compound] showed a CTX in data set [1] (0.5 mg/kg/day oral) of 52.6 ng/mL.

Consider `COc1c(O[C@@H]2O[C@H](CO)[C@@H](O)[C@H](O)[C@H]2O)cc2occ(-c3ccc(O)cc3)c(=O)c2c1O` [Tectoridin, tectoridin], for which, in data set [1] (10 mg/kg/day oral), the CTX was 70.4 ng/mL.

As to `COc1c(O[C@@H]2O[C@H](CO[C@@H]3OC[C@@H](O)[C@H](O)[C@H]3O)[C@@H](O)[C@H](O)[C@H]2O)cc2occ(-c3ccc(O)cc3)c(=O)c2c1O` [Tectorigenin 7-O-xylosylglucoside, tectorigenin 7-O-xylosylglucoside], the “Effect on CTX level / bone resorption (in words)” value in data set [1] (oral 8 weeks, compared to the OVX group or to tectorigenin and tectoridin) was “most inhibited bone resorption”. For the same compound, the CTX in data set [1] (10 mg/kg/day oral) turned out to be 58.4 ng/mL. For the same compound, in the data set with estrogen receptors, the “Activity for estrogen receptors Fold induction” value is given as 34 fold. Also, the “Effect on increase in tail temperature caused by estrogen deficiency (in words)” value in data set [2] is “best effect of suppressing increase in the tail temperature”.

On to `COc1c(O)cc2occ(-c3ccc(O)cc3)c(=O)c2c1O` [Tectorigenin, tectorigenin], for which the CTX in data set [1] (10 mg/kg/day oral) worked out at 71.5 ng/mL.
